According to publication PMC3140938 (Analytical and Bioanalytical Chemistry, 2011):
pEC50: −log10 of the molar value. “Also recorded” adds a separate entry of the source. Read-outs that look alike come from different tables or passages of the source.

What was measured:
[1] = target: T1, human glucocorticoid receptor alpha (hGRα) (Homo sapiens, UniProt P04150); experiment: cell-based; format: cell-based; settings: for pEC50: EC50
T1 sequence (P04150 1-777): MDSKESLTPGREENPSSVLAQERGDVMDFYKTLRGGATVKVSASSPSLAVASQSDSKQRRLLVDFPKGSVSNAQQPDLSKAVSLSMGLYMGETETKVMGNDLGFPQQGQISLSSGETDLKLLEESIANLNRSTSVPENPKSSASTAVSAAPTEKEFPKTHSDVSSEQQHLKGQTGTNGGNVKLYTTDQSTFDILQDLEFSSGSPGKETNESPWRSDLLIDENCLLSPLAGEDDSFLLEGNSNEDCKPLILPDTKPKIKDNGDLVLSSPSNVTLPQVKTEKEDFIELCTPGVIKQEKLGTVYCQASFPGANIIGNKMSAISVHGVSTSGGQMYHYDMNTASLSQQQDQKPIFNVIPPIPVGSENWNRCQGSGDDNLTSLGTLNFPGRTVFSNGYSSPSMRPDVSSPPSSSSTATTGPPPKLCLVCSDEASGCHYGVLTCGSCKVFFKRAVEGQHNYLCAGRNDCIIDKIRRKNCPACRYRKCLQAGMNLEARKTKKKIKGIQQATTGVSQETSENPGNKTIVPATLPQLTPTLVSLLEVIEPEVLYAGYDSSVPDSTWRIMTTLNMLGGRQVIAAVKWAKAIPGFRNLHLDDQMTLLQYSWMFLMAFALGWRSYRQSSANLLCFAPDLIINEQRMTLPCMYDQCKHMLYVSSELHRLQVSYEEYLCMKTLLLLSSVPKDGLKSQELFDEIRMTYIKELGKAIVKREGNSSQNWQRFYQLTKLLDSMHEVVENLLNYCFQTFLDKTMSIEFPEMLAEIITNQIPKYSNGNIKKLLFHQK

[2] = target: T1, human glucocorticoid receptor alpha (hGRα); format: cell-based; settings: yeast
hGRα [3] = target: T2, hGRα (Homo sapiens, UniProt P04150); experiment: cell-based; format: cell-based; settings: for RCP (relative corticoid potency): ratio EC50 of dexamethasone / EC50 of compound
T2 sequence (P04150 1-777): T1 sequence (P04150 1-777)

AR [4] = settings: yeast-based AR bioassay; cited from earlier work
AR [5] = settings: U2-OS-based CALUX analogue (AR); cited from earlier work
PR = settings: yeast-based PR bioassay; cited from earlier work
hGRα [6] = target: T2, hGRα; format: cell-based; settings: GR-CALUX, co-exposure with 1 or 10 nM dexamethasone
[7] = co-exposure with budesonide (5 or 50 μM)
[8] = GR-CALUX, agonism, 24 h exposure
[9] = co-exposure with 150 or 500 μM dexamethasone

SMILES: Clc1ccc(Cl)c(-c2cc(Cl)cc(Cl)c2Cl)c1 [PCB92]
- agonistic response (production of yEGFP), in words [1]: slight agonistic effect
- GR antagonism, in words [2, 7]: acts as a GR antagonist

SMILES: C[C@]12CCC(=O)C=C1CC[C@@H]1[C@@H]2[C@@H](O)C[C@]2(C=O)[C@@H](C(=O)CO)CC[C@@H]12 [Aldosterone]
- RCP (relative corticoid potency) [1]: 0.2
- agonistic response (production of yEGFP), in words [1]: dose-related increase in the production of yEGFP
- pEC50 [1]: 3.15
- pEC50 (hGRα [3]): 6.31
- agonistic response (luciferase activity), in words (hGRα [3]; compound alone, GR-CALUX): dose-related increase in luciferase activity
- RCP (relative corticoid potency) (hGRα [3]; GR-CALUX): 0.004

SMILES: C[C@H]1C[C@H]2[C@@H]3CCC4=CC(=O)C=C[C@]4(C)[C@@]3(F)[C@@H](O)C[C@]2(C)[C@@]1(O)C(=O)CO [Betamethasone, betamethasone]
- agonistic response (production of yEGFP), in words [1]: dose-related increase in the production of yEGFP
- agonistic response (luciferase activity), in words (hGRα [3]): dose-related increase in luciferase activity

SMILES: C[C@]12CC[C@@H]3c4ccc(O)cc4CC[C@H]3[C@@H]1CC[C@@H]2O [17β-Estradiol (E2), 17β-estradiol]
- EC50 [1]: Not active
- RCP (relative corticoid potency) [1]: 0.0
- agonistic response (production of yEGFP), in words [1]: no agonistic response
- EC50 (hGRα [3]; [8]): Not active
- RCP (relative corticoid potency) (hGRα [3]; GR-CALUX): 0

SMILES: C[C@]12C=CC(=O)C=C1CC[C@@H]1[C@@H]2[C@@H](O)C[C@@]2(C)[C@H]1CC[C@]2(O)C(=O)CO [Prednisolone, prednisolone]
- agonistic response (production of yEGFP), in words [1]: dose-related increase in the production of yEGFP
- agonistic response (luciferase activity), in words (hGRα [3]): dose-related increase in luciferase activity

SMILES: Clc1ccc(Cl)c(-c2cc(Cl)c(Cl)cc2Cl)c1 [PCB101]
- agonistic response (production of yEGFP), in words [1]: agonistic effect that is almost comparable with that of triamcinolone and progesterone
- inhibition of the response caused by 5 μM budesonide, in words ([2]; co-exposure with 5 μM budesonide): almost fully inhibiting
- inhibition of the response caused by 50 μM budesonide ([2]; co-exposure with 50 μM budesonide): 50%
- GR antagonism, in words [2, 7]: strongest GR antagonist

SMILES: Clc1ccc(-c2c(Cl)cc(Cl)cc2Cl)c(Cl)c1 [PCB100]
- GR antagonism, in words [2, 7]: only act as GR antagonists

SMILES: C[C@]12CCC(=O)C=C1CC[C@@H]1[C@@H]2C(=O)C[C@@]2(C)[C@H]1CC[C@]2(O)C(=O)CO [Cortisone, cortisone]
- EC50 [1]: Not active
- RCP (relative corticoid potency) [1]: 0.0
- agonistic response (production of yEGFP), in words [1]: no response
- EC50 (hGRα [3]; [8]): Not active
- agonistic response (luciferase activity), in words (hGRα [3]; compound alone, GR-CALUX): no response
- RCP (relative corticoid potency) (hGRα [3]; GR-CALUX): 0

SMILES: C[C@]12CCC(=O)C=C1CC[C@@H]1[C@@H]2[C@@H](O)C[C@@]2(C)[C@H]1CC[C@]2(O)C(=O)CO [Cortisol, cortisol]
- agonistic response (production of yEGFP), in words [1]: dose-related increase in the production of yEGFP
- agonistic response (luciferase activity), in words (hGRα [3]; compound alone, GR-CALUX): dose-related increase in luciferase activity

SMILES: CN(C)c1ccc([C@H]2C[C@@]3(C)[C@@H](CC[C@@]3(O)C#Cc3ccc(S(C)(=O)=O)cc3)[C@@H]3CCC4=CC(=O)CCC4=C32)cc1 [Org 34850]
- GR antagonism, in words (hGRα [6]): pure GR antagonist
- GR antagonism, in words [2, 9]: only slightly acted as GR antagonists

SMILES: CC#C[C@]1(O)CC[C@H]2[C@@H]3CCC4=CC(=O)CCC4=C3[C@@H](c3ccc(N(C)C)cc3)C[C@@]21C [Mifepristone, mifepristone]
- GR antagonism, in words (hGRα [6]): pure GR antagonists
- GR antagonism, in words [2, 9]: only slightly acted as GR antagonists
- EC50 (hGRα [3]): Not active^b

SMILES: CC(=O)OCC(=O)[C@@]1(O)CC[C@H]2[C@@H]3CCC4=CC(=O)CC[C@]4(C)[C@@]3(F)[C@@H](O)C[C@@]21C [Fludrocortisone-21-acetate, fludrocortisone-21-acetate]
- EC50 [1]: Not active
- agonistic response (luciferase activity), in words (hGRα [3]; compound alone, GR-CALUX): active

SMILES: C[C@]12C[C@H](O)[C@H]3[C@@H](CCC4=CC(=O)CC[C@@]43C)[C@@H]1CC[C@@H]2C(=O)CO [Corticosterone, corticosterone]
- RCP (relative corticoid potency) [1]: 1.7
- agonistic response (production of yEGFP), in words [1]: dose-related increase in the production of yEGFP
- pEC50 [1]: 4.15
- pEC50 (hGRα [3]): 7.10
- agonistic response (luciferase activity), in words (hGRα [3]; compound alone, GR-CALUX): dose-related increase in luciferase activity
- RCP (relative corticoid potency) (hGRα [3]; GR-CALUX): 0.03

SMILES: C[C@]12C=CC(=O)C=C1CC[C@H]1[C@@H]3C[C@@H](O)[C@](O)(C(=O)CO)[C@@]3(C)C[C@H](O)[C@@]12F [Triamcinolone, triamcinolone]
- EC50 [1]: Active^a
- RCP (relative corticoid potency) [1]: Active
- pEC50 (hGRα [3]): 7.72
- RCP (relative corticoid potency) (hGRα [3]; GR-CALUX): 0.1

SMILES: C[C@@H]1C[C@H]2[C@@H]3CCC4=CC(=O)C=C[C@]4(C)[C@@]3(F)[C@@H](O)C[C@]2(C)[C@@]1(O)C(=O)CO [Dexamethasone, dexamethasone]
- agonistic response (production of yEGFP), in words [1]: dose-related increase in the production of yEGFP
- agonistic response (luciferase activity), in words (hGRα [3]): dose-related increase in luciferase activity

SMILES: C[C@]12CCC(=O)C[C@@H]1CC[C@@H]1[C@@H]2CC[C@]2(C)[C@@H](O)CC[C@@H]12 [5α-Dihydrotestosterone, 5α-dihydrotestosterone]
- EC50 (hGRα [3]): Not active

SMILES: CCCC1O[C@@H]2C[C@H]3[C@@H]4CCC5=CC(=O)C=C[C@]5(C)[C@H]4[C@@H](O)C[C@]3(C)[C@]2(C(=O)CO)O1 (stereo partly drawn) [Budesonide, budesonide]
- agonistic response (production of yEGFP), in words [1]: dose-related increase in the production of yEGFP; also recorded: much more potent than Dex
- limit of detection [1]: 0.5 µM
- agonistic response (luciferase activity), in words (hGRα [3]; compound alone, GR-CALUX): equally potent

SMILES: Clc1ccc(-c2ccc(Cl)cc2Cl)c(Cl)c1 [PCB47]
- GR antagonism, in words [2, 7]: only act as GR antagonists
